Measurements as given in US9982021B2, “Composition for dissolving thrombi, and a pharmaceutical composition for treating stenotic or occlusive vascular diseases which comprises the same” (INDUSTRY-ACADEMIC COOPERATION FOUNDATION, YONSEI UNIVERSITY, priority 2010, dated 2018).
Entries after “also recorded” stand apart in the source; their conditions may differ.

Assays:
[1] = tested on: mouse PRP (platelet rich plasma); assay: In vitro platelet aggregation assay (ADP, Aggregometer); format: cell-based; conditions: for IC50: ADP, mouse PRP, read-out: IC50 platelet aggregation inhibition
Source text: Saxatilin derivatives and ADP were administrated to mouse PRP (platelet rich plasma) and measured aggregation level using Aggregometer (CHRONO-LOG, USA) to evaluate activity of the present saxatilin derivatives (Table 1).

[2] = tested on: FeCl3-induced carotid thrombus; assay: Intravenous thrombolysis in FeCl3-induced carotid artery thrombosis model (carotid blood flow); format: in vivo, ICR mice
Experimental: 8-week-old male ICR (Institute of Cancer Research) mice (OrientBio) were used. The care and use of laboratory animals were performed according to institutionally approved protocol in accordance with the National Institutes of Health's Guide for the care and use of laboratory animals. For operative procedures, the animals were anesthetized with an inhalation of 5% isoflurane in a mixture of 70% N2O and 30% O2. Anesthesia was maintained with 2% isoflurane. During the operative procedures, body temperature was monitored continuously with a rectal probe and was maintained at 37.0±0.2° C. by means of a homeothermic blanket control unit and heating pad (Harvard Apparatus, Holliston, Mass.). To test the thrombolytic activity of r-saxatilin in vivo, FeCl3 (Sigma Aldrich, USA)-induced carotid thrombus model was utilized. A midline cervical incision was made, and the left common carotid artery was carefully dissected under a surgical microscope. An ultrasonic Doppler flow probe (Transonic MA0.7PSB) was placed around midportion of the common carotid artery (CCA). Carotid blood flow was obtained with a Transonic TS420 Blood Flow Meter (Transonic Instruments, Ithaca, N.Y.) and iWorx IX-304T data acquisition system (iWorx Systems, Inc., Dover, N.H.). The control baseline flow of the CCA was measured for 5 minutes. After the determination of the control baseline flow, the probe was removed. Oxidative vascular injury with chemical stress was induced by placing a filter paper (700×500 μm) saturated with 50% FeCl3 on the adventitial surface of the midpoint of the exposed CCA for 5 min. After removing the filter paper, the CCA was washed with normal saline and its blood flow was recorded. Thrombus formation and arterial occlusion were determined by decrease of blood flow and the complete occlusion was defined as absence of blood flow maintained for 10 minutes.
Ten minutes after occlusion of the CCA, r-saxatilin was administered intravenously via the left femoral vein by using an infusion pump (KD Scientific Inc., USA) connected to PE-10 tubing. The carotid blood flow was continuously monitored for 2 hours from the initial time of injection.
To evaluate dose response of r-saxatilin, the animals were randomly divided into seven groups (five mice in each group): normal saline (control group), 1, 1.75, 2.5, 3.75, 5.0, and 10.0 mg/kg of r-saxatilin administration groups. 10% of the dose was administered in bolus intravenously and the rest was infused continuously for 60 min.
Effects of r-saxatilin for thrombolysis were assessed according to administration method. For this experiment, a total dose of 5 mg/kg of r-saxatilin was used in each animal, and the animals were divided into four groups (five mice in each group): (a) bolus injection of total dose (5 mg/kg); (b) double bolus injection of r-saxatilin with a half dose (2.5 mg/kg) of r-saxatilin at 10 min after occlusion and 60 min after the first bolus injection; (c) a half dose bolus injection (2.5 mg/kg) at 10 min after occlusion, and then continuous infusion for 60 min of the remaining dose; and (d) bolus injection of 10% of the total dose (0.5 mg/kg) at 10 min after occlusion, and then continuous infusion of the remaining dose (4.5 mg/kg) for 60 min.
The presence and degree of recanalization were assessed by measuring blood flow. Data of blood flow at baseline and those monitored continuously for 2 hours after CCA occlusion were acquired by using iWorx Labscribe2 data acquisition software (version 2.045000). Immediately after 2 hours of blood flow monitoring, the CCA was obtained in all mice, fixed with 4% paraformaldehyde solution, and embedded in paraffin for histological examination. The paraffin blocks were consecutively sectioned in a transverse direction with 3 μm-thickness, mounted on a glass slide, and stained with hematoxylin and eosin.
The carotid blood flow was analyzed by the area under the flow-time curves. […]

[3] = Mortality and bleeding after the r-saxatilin treatment; format: in vivo, ICR mice; conditions: 5 mg/kg bolus injection group
Source text: Total 51 animals were used for evaluation of thrombolytic effects of r-saxatilin.

[4] = tested on: FeCl3-induced carotid thrombus; assay: Intravenous thrombolysis in FeCl3-induced carotid artery thrombosis model (carotid blood flow); format: in vivo, ICR mice; remark: listed apart in the source
[5] = total 5 mg/kg, bolus injection of total dose

## XL2: saxatilin derivative (deletion mutant), SEQ ID NO:7, expressed in Pichia (CKLRPGAQCAEGLCCDQCRFMKEGTICRMARGDDMDDYCNGISAGC; aritificially made peptide comprising Arg-Gly-Asp motif having thrombolytic activity)
[1]
  IC50: 986 nM

## saxatilin
[1]
  IC50: 176 nM
[1]; FIG. 6
  treatment concentration giving similar level of aggregation inhibition: approximately 0.7 μM
[2]; 1 mg/kg
  effective recanalization (blood flow >=50% of baseline maintained >30 min), mice: No effective recanalization
[2]; 1 mg/kg i.v., 10% bolus + 60 min infusion, 2 h monitoring
  blood flow, area under flow-time curve, percent of mean control baseline blood flow: 2.36±0.78%
[2]; 1.75 mg/kg
  effective recanalization, mice: No effective recanalization
[2]; 1.75 mg/kg i.v., 10% bolus + 60 min infusion
  blood flow, area under flow-time curve, percent of mean control baseline blood flow: 4.97±3.94%
[2]; 2.5 mg/kg
  effective recanalization, mice: two of five
  time to effective recanalization: 32.92 ± 23.52 min
[2]; 2.5 mg/kg i.v., 10% bolus + 60 min infusion
  blood flow, area under flow-time curve, percent of mean control baseline blood flow: 32.50±33.70%
[2]; 3.75 mg/kg
  effective recanalization, mice: three of five
  time to effective recanalization: 21.75 ± 21.62 min
[2]; 5 mg/kg, 10% bolus + infusion
  effective recanalization, mice: all mice
[2]; 5 mg/kg, bolus 10% of total dose + continuous infusion
  time to effective recanalization: 13.92 ± 6.02 min
[2]; 5 mg/kg, bolus injection of total dose
  time to effective recanalization: 2.86 ± 0.22 min
[2]; 5 mg/kg, double bolus injection
  time to effective recanalization: 13.44 ± 26.31 min
[2]; 5 mg/kg, half dose bolus and continuous infusion of other half
  time to effective recanalization: 19.48 ± 25.94 min
[2]; 10 mg/kg
  effective recanalization, mice: all mice
  time to effective recanalization: 19.46 ± 19.75 min
[2]; 10 mg/kg i.v., 10% bolus + 60 min infusion, listed as r-saxatilin
  blood flow, area under flow-time curve, versus baseline and 5 mg/kg: no significant difference; also recorded: restored nearly to the baseline level
[2]; total 5 mg/kg, bolus 10% of total dose + continuous infusion of remaining dose
  reocclusion: no reocclusion
[2]; [5]
  mean percentage of blood flow compared to baseline blood flow: 77.01±46.11%
  time point of abrupt reocclusion: about 100 min
[2]; total 5 mg/kg, double bolus injection with a half dose (2.5 mg/kg each)
  mean percentage of blood flow compared to baseline blood flow: 85.23±29.95%
[2]; total 5 mg/kg, double bolus injection, after the first injection
  time point of abrupt reocclusion: about 50 min
[2]; total 5 mg/kg, half dose bolus and continuous infusion of other half
  time point of abrupt reocclusion: about 110 min
[2]; total 5 mg/kg, half dose bolus then continuous infusion of remaining dose for 60 min
  mean percentage of blood flow compared to baseline blood flow: 80.72±30.13%
[3]
  bleeding in the cervical incision: one animal suffered bleeding
[3]; about 90 min after bolus, total 51 animals
  mortality: one animal was died from bleeding
[4]; 20 mg/kg
  restored blood flow (area under flow-time curve): 60.92±39.52%
[4]; 40 mg/kg
  restoration of blood flow and reocclusion: restored to normal blood flow and maintained without reocclusion
